From patent publication US20090118286A1, “Heterobicyclic Acrylamides” (Bayer Cropscience AG, priority 2005, published 2009)

Assay: log P determination by HPLC (EEC Directive 79/831 Annex V.A8, gradient method)
Type: physicochemical

Row | SMILES | Physical data: logP
1 | CC(C)(C)c1nn2c(/C=C/C(=O)NC3CCCCC3)c(-c3ccccc3Cl)nc2s1 [Example 0810] | 3.79
2 | CC(C)(C)c1nn2c(/C=C/C(=O)Nc3ccc(Cl)cc3)c(-c3ccccc3Cl)nc2s1 [Example 0811] | 4.72
3 | CC(C)(C)c1nn2c(/C=C/C(=O)Nc3ccc(OC(F)(F)F)cc3)c(-c3ccccc3Cl)nc2s1 [Example 0812] | 5.13
4 | CC(C)(C)c1nn2c(/C=C/C(=O)NCC(F)(F)C(F)(F)F)c(-c3ccccc3Cl)nc2s1 [Example 0814] | 4.08
5 | CC(C)(C)c1nn2c(/C=C/C(=O)NCC(F)(F)C(F)(F)C(F)(F)F)c(-c3ccccc3Cl)nc2s1 [Example 0815] | 4.48
6 | COCc1nn2c(/C=C/C(=O)NCC(C)C)c(-c3ccccc3Cl)nc2s1 [Example 0816] | 2.71
7 | COCc1nn2c(/C=C/C(=O)NC(C)C(F)(F)F)c(-c3ccccc3Cl)nc2s1 (centres unmarked) [Example 0817] | 2.93
8 | COCc1nn2c(C=CC(=O)NC(C(C)C)C(F)(F)F)c(-c3ccccc3Cl)nc2s1 (centres unmarked) [Example 0818] | 3.54
9 | COCc1nn2c(/C=C/C(=O)NCC(C)(C)C)c(-c3ccccc3Cl)nc2s1 [Example 0819] | 3.05
10 | COCc1nn2c(/C=C/C(=O)NCCC(C)C)c(-c3ccccc3Cl)nc2s1 [Example 0820] | 3.12
11 | COCc1nn2c(/C=C/C(=O)NC3CCC(C(F)(F)F)CC3)c(-c3ccccc3Cl)nc2s1 (centres unmarked) [Example 0821] | 3.4
12 | COCc1nn2c(/C=C/C(=O)NCC(F)(F)F)c(-c3ccccc3Cl)nc2s1 [Example 0822] | 2.72
13 | COCc1nn2c(/C=C/C(=O)NC(C)C)c(-c3ccccc3Cl)nc2s1 [Example 0824] | 2.4
14 | CCC(C)NC(=O)/C=C/c1c(-c2ccccc2Cl)nc2sc(COC)nn12 (centres unmarked) [Example 0825] | 2.71
15 | COCc1nn2c(/C=C/C(=O)NC3CC3)c(-c3ccccc3Cl)nc2s1 [Example 0829] | 2.2
16 | COCc1nn2c(/C=C/C(=O)NC3CCC3)c(-c3ccccc3Cl)nc2s1 [Example 0830] | 2.59
17 | COCc1nn2c(/C=C/C(=O)NC3CCCC3)c(-c3ccccc3Cl)nc2s1 [Example 0831] | 2.8
18 | COCc1nn2c(/C=C/C(=O)NC3CCCCC3)c(-c3ccccc3Cl)nc2s1 [Example 0832] | 3.12
19 | COCc1nn2c(/C=C/C(=O)Nc3ccc(Cl)cc3)c(-c3ccccc3Cl)nc2s1 [Example 0833] | 3.87
20 | COCc1nn2c(/C=C/C(=O)Nc3ccc(OC(F)(F)F)cc3)c(-c3ccccc3Cl)nc2s1 [Example 0834] | 4
21 | COCc1nn2c(/C=C/C(=O)Nc3ccc(C(F)(F)F)cc3)c(-c3ccccc3Cl)nc2s1 [Example 0835] | 3.99
22 | COCc1nn2c(/C=C/C(=O)NCC(F)(F)C(F)(F)F)c(-c3ccccc3Cl)nc2s1 [Example 0836] | 3.17
23 | COCc1nn2c(/C=C/C(=O)NCC(F)(F)C(F)(F)C(F)(F)F)c(-c3ccccc3Cl)nc2s1 [Example 0837] | 3.59
24 | CC(C)CNC(=O)/C=C/c1c(-c2ccccc2Cl)nc2sc(-c3ccc(C(F)(F)F)cc3)nn12 [Example 0838] | 4.37
25 | CC(NC(=O)/C=C/c1c(-c2ccccc2Cl)nc2sc(-c3ccc(C(F)(F)F)cc3)nn12)C(F)(F)F (centres unmarked) [Example 0839] | 4.37

Row | SMILES | Physical data: logP
26 | CC(C)(C)CNC(=O)/C=C/c1c(-c2ccccc2Cl)nc2sc(-c3ccc(C(F)(F)F)cc3)nn12 [Example 0841] | 4.68
27 | CC(C)CCNC(=O)/C=C/c1c(-c2ccccc2Cl)nc2sc(-c3ccc(C(F)(F)F)cc3)nn12 [Example 0842] | 4.72
28 | O=C(/C=C/c1c(-c2ccccc2Cl)nc2sc(-c3ccc(C(F)(F)F)cc3)nn12)NC1CCC(C(F)(F)F)CC1 (centres unmarked) [Example 0843] | 4.86
29 | O=C(/C=C/c1c(-c2ccccc2Cl)nc2sc(-c3ccc(C(F)(F)F)cc3)nn12)NCC(F)(F)F [Example 0844] | 4.21
30 | CC(C)NC(=O)/C=C/c1c(-c2ccccc2Cl)nc2sc(-c3ccc(C(F)(F)F)cc3)nn12 [Example 0846] | 3.96
31 | CCC(C)NC(=O)/C=C/c1c(-c2ccccc2Cl)nc2sc(-c3ccc(C(F)(F)F)cc3)nn12 (centres unmarked) [Example 0847] | 4.33
32 | CC(NC(=O)/C=C/c1c(-c2ccccc2Cl)nc2sc(-c3ccc(C(F)(F)F)cc3)nn12)C(C)(C)C (centres unmarked) [Example 0848] | 4.83
33 | O=C(/C=C/c1c(-c2ccccc2Cl)nc2sc(-c3ccc(C(F)(F)F)cc3)nn12)NC1CC1 [Example 0851] | 3.75
34 | O=C(/C=C/c1c(-c2ccccc2Cl)nc2sc(-c3ccc(C(F)(F)F)cc3)nn12)NC1CCC1 [Example 0852] | 4.21
35 | O=C(/C=C/c1c(-c2ccccc2Cl)nc2sc(-c3ccc(C(F)(F)F)cc3)nn12)NC1CCCC1 [Example 0853] | 4.44
36 | O=C(/C=C/c1c(-c2ccccc2Cl)nc2sc(-c3ccc(C(F)(F)F)cc3)nn12)NC1CCCCC1 [Example 0854] | 4.76
37 | O=C(/C=C/c1c(-c2ccccc2Cl)nc2sc(-c3ccc(C(F)(F)F)cc3)nn12)NC1CCC(Cl)CC1 (centres unmarked) [Example 0855] | 5.27
38 | O=C(/C=C/c1c(-c2ccccc2Cl)nc2sc(-c3ccc(C(F)(F)F)cc3)nn12)Nc1ccc(OC(F)(F)F)cc1 [Example 0856] | 5.47
39 | O=C(/C=C/c1c(-c2ccccc2Cl)nc2sc(-c3ccc(C(F)(F)F)cc3)nn12)Nc1ccc(C(F)(F)F)cc1 [Example 0857] | 5.61
40 | O=C(/C=C/c1c(-c2ccccc2Cl)nc2sc(-c3ccc(C(F)(F)F)cc3)nn12)NCC(F)(F)C(F)(F)F [Example 0858] | 4.62
41 | O=C(/C=C/c1c(-c2ccccc2Cl)nc2sc(-c3ccc(C(F)(F)F)cc3)nn12)NCC(F)(F)C(F)(F)C(F)(F)F [Example 0859] | 5
42 | Cc1cn2c(/C=C/C(=O)NCC(C)C)c(-c3ccccc3Cl)nc2s1 [Example 0860] | 2.64
43 | Cc1cn2c(/C=C/C(=O)NC(C)C(F)(F)F)c(-c3ccccc3Cl)nc2s1 (centres unmarked) [Example 0861] | 2.85
44 | Cc1cn2c(C=CC(=O)NC(C(C)C)C(F)(F)F)c(-c3ccccc3Cl)nc2s1 (centres unmarked) [Example 0862] | 3.45
45 | Cc1cn2c(/C=C/C(=O)NCC(C)(C)C)c(-c3ccccc3Cl)nc2s1 [Example 0863] | 2.89
46 | Cc1cn2c(/C=C/C(=O)NCCC(C)C)c(-c3ccccc3Cl)nc2s1 [Example 0864] | 3
47 | Cc1cn2c(/C=C/C(=O)NCC(F)(F)F)c(-c3ccccc3Cl)nc2s1 [Example 0866] | 2.64
48 | Cc1cn2c(/C=C/C(=O)NC(C)C)c(-c3ccccc3Cl)nc2s1 [Example 0868] | 2.35
49 | CCC(C)NC(=O)/C=C/c1c(-c2ccccc2Cl)nc2sc(C)cn12 (centres unmarked) [Example 0869] | 2.54
50 | Cc1cn2c(/C=C/C(=O)NC(C)C(C)(C)C)c(-c3ccccc3Cl)nc2s1 (centres unmarked) [Example 0870] | 3.17

Row | SMILES | Physical data: logP
51 | Cc1cn2c(/C=C/C(=O)NC3CC3)c(-c3ccccc3Cl)nc2s1 [Example 0873] | 2.02
52 | Cc1cn2c(/C=C/C(=O)NC3CCC3)c(-c3ccccc3Cl)nc2s1 [Example 0874] | 2.48
53 | Cc1cn2c(/C=C/C(=O)NC3CCCC3)c(-c3ccccc3Cl)nc2s1 [Example 0875] | 2.7
54 | Cc1cn2c(/C=C/C(=O)NC3CCCCC3)c(-c3ccccc3Cl)nc2s1 [Example 0876] | 3.05
55 | Cc1cn2c(/C=C/C(=O)Nc3ccc(Cl)cc3)c(-c3ccccc3Cl)nc2s1 [Example 0877] | 3.57
56 | Cc1cn2c(/C=C/C(=O)Nc3ccc(OC(F)(F)F)cc3)c(-c3ccccc3Cl)nc2s1 [Example 0878] | 3.9
57 | Cc1cn2c(/C=C/C(=O)Nc3ccc(C(F)(F)F)cc3)c(-c3ccccc3Cl)nc2s1 [Example 0879] | 3.88
58 | Cc1cn2c(/C=C/C(=O)NCC(F)(F)C(F)(F)F)c(-c3ccccc3Cl)nc2s1 [Example 0880] | 3.09
59 | Cc1cn2c(/C=C/C(=O)NCC(F)(F)C(F)(F)C(F)(F)F)c(-c3ccccc3Cl)nc2s1 [Example 0881] | 3.51
60 | Cc1csc2nc(-c3ccccc3Cl)c(/C=C/C(=O)NCC(C)C)n12 [Example 0882] | 2.4
61 | Cc1csc2nc(-c3ccccc3Cl)c(/C=C/C(=O)NC(C)C(F)(F)F)n12 (centres unmarked) [Example 0883] | 2.59
62 | Cc1csc2nc(-c3ccccc3Cl)c(/C=C/C(=O)NC(C(C)C)C(F)(F)F)n12 (centres unmarked) [Example 0884] | 3.11
63 | Cc1csc2nc(-c3ccccc3Cl)c(/C=C/C(=O)NCC(C)(C)C)n12 [Example 0885] | 2.67
64 | Cc1csc2nc(-c3ccccc3Cl)c(/C=C/C(=O)NCCC(C)C)n12 [Example 0886] | 2.75
65 | Cc1csc2nc(-c3ccccc3Cl)c(/C=C/C(=O)NC3CCC(C(F)(F)F)CC3)n12 (centres unmarked) [Example 0887] | 3.04
66 | Cc1csc2nc(-c3ccccc3Cl)c(/C=C/C(=O)NCC(F)(F)F)n12 [Example 0888] | 2.36
67 | Cc1csc2nc(-c3ccccc3Cl)c(/C=C/C(=O)NC(C)C)n12 [Example 0890] | 2.09
68 | CCC(C)NC(=O)/C=C/c1c(-c2ccccc2Cl)nc2scc(C)n12 (centres unmarked) [Example 0891] | 2.35
69 | Cc1csc2nc(-c3ccccc3Cl)c(/C=C/C(=O)NC(C)C(C)(C)C)n12 (centres unmarked) [Example 0892] | 2.84
70 | Cc1csc2nc(-c3ccccc3Cl)c(/C=C/C(=O)NC3CC3)n12 [Example 0895] | 1.94
71 | Cc1csc2nc(-c3ccccc3Cl)c(/C=C/C(=O)NC3CCC3)n12 [Example 0896] | 2.26
72 | Cc1csc2nc(-c3ccccc3Cl)c(/C=C/C(=O)NC3CCCC3)n12 [Example 0897] | 2.46
73 | Cc1csc2nc(-c3ccccc3Cl)c(/C=C/C(=O)NC3CCCCC3)n12 [Example 0898] | 2.74
74 | Cc1csc2nc(-c3ccccc3Cl)c(/C=C/C(=O)Nc3ccc(Cl)cc3)n12 [Example 0899] | 3.24
